Assay results published in paper PMC3287010, “Pharmacokinetic Study of Di-Phenyl-Di-(2,4-Difluobenzohydroxamato)Tin(IV): Novel Metal-Based Complex with Promising Antitumor Potential” (Bioinorganic Chemistry and Applications, 2012).

How the values were obtained:
[1] = Stability of DPDFT in rat plasma QC samples (freeze/thaw, storage, autosampler); type: in vitro ADME
Description: Quality control (QC) samples were used to determine the accuracy and precision of method and were independently prepared at low (0.8 μg·mL^−1), medium (4 μg·mL^−1), and high (20 μg·mL^−1) concentrations. To evaluate the accuracy and precision, we used at least five QC samples of three different concentrations of DPDFT. The intraday and interday accuracies were expressed as the percentage difference between the measured concentration and the nominal concentration in rat plasma. The intraday precision and accuracy were calculated using replicate (n = 6) determinations for each concentration of the spiked plasma sample during a single analytical run. The interassay precision and accuracy were calculated using replicate (n = 6) determinations of each concentration made on three separate days. The variability of determination was expressed as the relative standard deviation (RSD) which should be ≤15%, covering the range of actual experimental concentrations.
The stability of DPDFT in rat plasma was assessed by analyzing replicates (n = 6) of QC samples at concentrations of 0.8, 4, 20 μg·mL^−1, respectively. The investigation covered the expected conditions during all of the sample storage and process periods, which included the stability data from freeze/thaw cycle and long-term stability tests. The concentrations obtained from stability studies were compared with the freshly prepared QC samples, and the percentage concentration deviation was calculated. In each freeze–thaw cycle, the samples were frozen and stored at −20°C for 10 days, then thawed at room temperature. The stability of the fresh plasma samples was tested after keeping the samples at […], −20°C and room temperature for 72 h. The stability of deproteinized samples at 10°C in the autosampler was evaluated up to 24 h.

[2] = Stability of stock solution stored at 4°C; type: physicochemical; settings: stock solution in methanol
Description: A stock solution of DPDFT was prepared in methanol at the concentration of 100 mg·mL^−1 and was further diluted in HPLC mobile phase to make working standards. The I.S. stock solution was prepared and diluted to 50.0 μg·mL^−1 working solution with HPLC mobile phase. All the stock solutions were maintained at 4°C until use.
Stability of DPDFT during storage and processing was checked using quality control samples. The DPDFT and I.S. stock solutions were stable for at least 2 months when stored at 4°C. The deviation of the mean test responses was within ±10% of appropriate controls in all stability tests of DPDFT in rat plasma. After three freeze-thaw cycles, the concentration changes of DPDFT were less than 7%. The analyte was stable in the matrices at 4, −20°C and room temperature for 72 h without significant degradation (<8%).

[3] = Pharmacokinetic study in rats after single intravenous administration (HPLC-UV plasma determination, two-compartment model, 3p97 software); type: in vivo, Wistar albino rats; parameters: AUC / CL(s): unit not given here; settings: for A / B / CL(s) / K 10 (first order elimination from compartment 1) / K 12 (first order transfer from compartment 1 to compartment 2) / K 21 (first order transfer from compartment 2 to compartment 1) / V d / t 1/2a (distribution half-life) / t 1/2β (elimination half-life) / β: mean ± SD, n = 6
Description: Laboratory bred adult Wistar albino rats (200–250 g), which were supplied by the Animal Research Center at Shanxi Medical University (Taiyuan, Shanxi Province, China), were housed at 25 ± 2°C in a well-ventilated animal house under 12 : 12 h light dark cycle. The animals drank sterilized drinking water, and standard chow diet was supplied ad libitum to each cage. The animal experiments were performed in accordance with the ARVO Statement for the Use of Animals in Ophthalmic and Vision Research and were approved by the Animal Ethics Committee of Shanxi Medical University.
HPLC analysis was carried out using a Waters 2695 HPLC system (Waters Associates, Milford, MA) which consisted of a photodiode array detector, an autosampler, and a degasser. The apparatus was interfaced to a DELL PC compatible computer using Empower Pro software for data acquisition. The sensitivity was 0.2 AUFS. The autosampler was cooled to 10°C. The column was maintained at room temperature. Chromatographic separation of DPDFT and the I.S. was achieved on a Diamonsil C18 column (250 mm × 4.6 mm, 5 μm) from Dikma Technologies (Beijing, China) protected by a SHIMADZU LC guard column at 25°C. The mobile phase for HPLC analysis consisted of phosphoric acid in water (solvent A)/methanol (solvent B) (30 : 70, V/V, pH 3.0) with a flow rate of 0.8 mL·min^−1. A sample volume of 20 μL was injected. Prior to use, the mobile phase was filtered through a 0.45 μm hydrophilic membrane filter. The photodiode array detector was set at a wavelength of 228 nm at room temperature. Under the chromatographic condition mentioned above, DPDFT and the I.S. acetanilide could be separated completely in the chromatograms (R > 1.5), and there was no endogenous interference with the chromatographic peak of DPDFT and the I.S.acetanilide. Besides, the retention time of acetanilide (t R = 15.67 min) was very suitable as the I.S. compared to that of DPDFT (t R = 8.34 min).
Blood samples collected from rat blood plasma were immediately transferred to 1.5 mL heparinized microcentrifuge tubes from fossa orbitalis of rats, and then processed for plasma by centrifugation. The supernatant plasma (0.2 mL) was then vortex-mixed with methanol (0.4 mL) containing acetanilide (0.2 mL, 50.0 μg·mL^−1) as internal standard (I.S.) for 30 s. After vortex-mixing, the mixture was centrifuged at 13000 rpm for 10 min 4°C to separate precipitated proteins. The supernatant solution of methanol layer was filtered through a 0.45 μm membrane filter. Twenty microliters of filtrate were injected into the chromatography. The same sample processing was also applied to the recovery and to the precision study in plasma. All harvested samples stored at −4°C were brought to room temperature before use and analyzed within one week.
To evaluate the suitability of the assay for pharmacokinetic studies, 7.5, 15, and 30 mg·kg^−1 of DPDFT were intravenously administered to rats (half males and half females, resp.). Six animals were used in each dosage by direct injection into a lateral tail vein, with a duration of infusion less than 1 min. Heparinized blood samples (0.5 mL) were collected at 0, 1, 3, 5, 10, 30, 60, and 120 min after injection. […]. After each sampling, the removed volume of blood was supplemented with an equal volume of sodium chloride. The blood samples were immediately centrifuged and the resulting plasma was prepared according to the procedure given for the calibrators. Pharmacokinetic calculations were performed using the observed data. […] All values obtained were expressed in mean ± standard deviation.

[4] = Stability of DPDFT in rat plasma QC samples (freeze/thaw, storage, autosampler); type: in vitro ADME; settings: 72 h at 4°C
[5] = rats, i.v., 15 mg·kg^−1 (middle)
[6] = rats, i.v., 7.5, 15, and 30 mg·kg^−1

## O=C(N[O][Sn]([O]NC(=O)c1ccc(F)cc1F)([c]1ccccc1)[c]1ccccc1)c1ccc(F)cc1F [DPDFT, Di-phenyl-di-(2,4-difluobenzohydroxamato)tin(IV)]
[1]; all stability tests in rat plasma
  deviation of the mean test responses from appropriate controls: ≤ 10%
[1]; deproteinized rat plasma, 10°C for up to 24 h
  run-time stability (concentration change): < 6%
[1]; deproteinized rat plasma, autosampler 24 h at 10°C, nominal 0.8 μg·mL^−1
  Accuracy = [(Cobs − Cnom)/Cnom] × 100: 3.75%
[1]; deproteinized rat plasma, autosampler 24 h at 10°C, nominal 0.8 μg·mL^−1, n = 6
  Observed concentration ± SD: 0.83 ± 0.04 µg/mL
[1]; deproteinized rat plasma, autosampler 24 h at 10°C, nominal 4 μg·mL^−1
  Accuracy = [(Cobs − Cnom)/Cnom] × 100: −4.25%
[1]; deproteinized rat plasma, autosampler 24 h at 10°C, nominal 4 μg·mL^−1, n = 6
  Observed concentration ± SD: 3.83 ± 0.18 µg/mL
[1]; deproteinized rat plasma, autosampler 24 h at 10°C, nominal 20 μg·mL^−1
  Accuracy = [(Cobs − Cnom)/Cnom] × 100: −4.05%
[1]; deproteinized rat plasma, autosampler 24 h at 10°C, nominal 20 μg·mL^−1, n = 6
  Observed concentration ± SD: 19.19 ± 1.08 µg/mL
[1]; rat plasma, 4, −20°C and room temperature for 72 h
  degradation in the matrices: < 8%
[1]; rat plasma, 72 h at 4°C, nominal 0.8 μg·mL^−1
  Accuracy = [(Cobs − Cnom)/Cnom] × 100: 8.75%
[1]; rat plasma, 72 h at 4°C, nominal 0.8 μg·mL^−1, n = 6
  Observed concentration ± SD: 0.87 ± 0.04 µg/mL
[1]; rat plasma, 72 h at 4°C, nominal 4 μg·mL^−1, n = 6
  Observed concentration ± SD: 3.70 ± 0.16 µg/mL
[1]; rat plasma, 72 h at 4°C, nominal 20 μg·mL^−1
  Accuracy = [(Cobs − Cnom)/Cnom] × 100: 5.70%
[1]; rat plasma, 72 h at room temperature, nominal 0.8 μg·mL^−1
  Accuracy = [(Cobs − Cnom)/Cnom] × 100: −2.50%
[1]; rat plasma, 72 h at room temperature, nominal 0.8 μg·mL^−1, n = 6
  Observed concentration ± SD: 0.78 ± 0.05 µg/mL
[1]; rat plasma, 72 h at room temperature, nominal 4 μg·mL^−1
  Accuracy = [(Cobs − Cnom)/Cnom] × 100: −3.25%
[1]; rat plasma, 72 h at room temperature, nominal 4 μg·mL^−1, n = 6
  Observed concentration ± SD: 3.87 ± 0.19 µg/mL
[1]; rat plasma, 72 h at room temperature, nominal 20 μg·mL^−1, n = 6
  Observed concentration ± SD: 19.46 ± 1.19 µg/mL
[1]; rat plasma, 72 h at −20°C, nominal 0.8 μg·mL^−1
  Accuracy = [(Cobs − Cnom)/Cnom] × 100: −7.50%
[1]; rat plasma, 72 h at −20°C, nominal 0.8 μg·mL^−1, n = 6
  Observed concentration ± SD: 0.74 ± 0.05 µg/mL
[1]; rat plasma, 72 h at −20°C, nominal 4 μg·mL^−1
  Accuracy = [(Cobs − Cnom)/Cnom] × 100: 5.50%
[1]; rat plasma, 72 h at −20°C, nominal 4 μg·mL^−1, n = 6
  Observed concentration ± SD: 4.22 ± 0.12 µg/mL
[1]; rat plasma, 72 h at −20°C, nominal 20 μg·mL^−1
  Accuracy = [(Cobs − Cnom)/Cnom] × 100: −4.35%
[1]; rat plasma, 72 h at −20°C, nominal 20 μg·mL^−1, n = 6
  Observed concentration ± SD: 19.13 ± 1.53 µg/mL
[1]; rat plasma, frozen at −20°C, thawed at room temperature
  concentration changes after three freeze-thaw cycles: less than 7%
[1]; rat plasma, three freeze and thaw cycles, nominal 0.8 μg·mL^−1
  Accuracy = [(Cobs − Cnom)/Cnom] × 100: −5.00%
[1]; rat plasma, three freeze and thaw cycles, nominal 0.8 μg·mL^−1, n = 6
  Observed concentration ± SD: 0.76 ± 0.05 µg/mL
[1]; rat plasma, three freeze and thaw cycles, nominal 4 μg·mL^−1
  Accuracy = [(Cobs − Cnom)/Cnom] × 100: −5.25%
[1]; rat plasma, three freeze and thaw cycles, nominal 4 μg·mL^−1, n = 6
  Observed concentration ± SD: 3.79 ± 0.13 µg/mL
[1]; rat plasma, three freeze and thaw cycles, nominal 20 μg·mL^−1
  Accuracy = [(Cobs − Cnom)/Cnom] × 100: −5.15%
[1]; rat plasma, three freeze and thaw cycles, nominal 20 μg·mL^−1, n = 6
  Observed concentration ± SD: 18.97 ± 1.17 µg/mL
[2]
  time stock solution was stable: at least 2 months
[3]; collected at 3 min after administration of 15 mg·kg^−1, i.v.
  DPDFT concentration in blood sample: 2.4 µg/mL
[3]; rats, i.v., 7.5 mg·kg^−1 (low)
  A: 2.21 ± 0.03 min⁻¹
  B: 0.15 ± 0.04 mg/kg
  CL(s): 0.66 ± 0.05
  K 10 (first order elimination from compartment 1): 0.32 ± 0.05 min⁻¹
  K 12 (first order transfer from compartment 1 to compartment 2): 0.26 ± 0.04 min⁻¹
  K 21 (first order transfer from compartment 2 to compartment 1): 0.08 ± 0.004 min⁻¹
  V d: 2.13 ± 0.07 L/kg
  t 1/2a (distribution half-life): 1.04 ± 0.01 min
  t 1/2β (elimination half-life): 17.68 ± 2.6 min
  β: 0.04 ± 0.003 min⁻¹
[3]; [5]
  A: 7.94 ± 3.12 min⁻¹
  B: 0.92 ± 0.04 mg/kg
  CL(s): 0.27 ± 0.02
  K 10 (first order elimination from compartment 1): 0.24 ± 0.08 min⁻¹
  K 12 (first order transfer from compartment 1 to compartment 2): 0.38 ± 0.01 min⁻¹
  K 21 (first order transfer from compartment 2 to compartment 1): 0.11 ± 0.01 min⁻¹
  V d: 1.13 ± 0.08 L/kg
  t 1/2a (distribution half-life): 1.01 ± 0.01 min
  t 1/2β (elimination half-life): 19.38 ± 3.6 min
  β: 0.04 ± 0.003 min⁻¹
[3]; rats, i.v., 30 mg·kg^−1 (high)
  A: 22.36 ± 8.12 min⁻¹
  B: 1.85 ± 0.44 mg/kg
  K 10 (first order elimination from compartment 1): 0.30 ± 0.18 min⁻¹
  K 12 (first order transfer from compartment 1 to compartment 2): 0.28 ± 0.11 min⁻¹
  K 21 (first order transfer from compartment 2 to compartment 1): 0.09 ± 0.01 min⁻¹
  V d: 0.62 ± 0.08 L/kg
  t 1/2a (distribution half-life): 1.12 ± 0.1 min
  t 1/2β (elimination half-life): 16.81 ± 3.6 min
  β: 0.04 ± 0.003 min⁻¹
[3]; [6]
  compartment model fitted to concentration-time data: two-compartment model
  difference in pharmacokinetic parameters between male and female rats: no significant differences
[3]; rats, i.v., from 7.5 to 30 mg/kg
  dose linearity of pharmacokinetics: nonlinear process
[4]; nominal 4 μg·mL^−1
  Accuracy = [(Cobs − Cnom)/Cnom] × 100: −7.50%
[4]; nominal 20 μg·mL^−1, n = 6
  Observed concentration ± SD: 21.14 ± 1.27 µg/mL
